{
  "source": "patent US20230092890A1",
  "about": "“1, 3, 4-Oxadiazole derivative compounds as histone deacetylase 6 inhibitor, and the pharmaceutical composition comprising the same” (Chong Kun Dang Pharmaceutical Corp., priority 2019, published 2023)",
  "key": {"HDAC6 human recombinant": {"molecular_target": "T1, HDAC6 human recombinant (Homo sapiens, UniProt Q9UBN7)", "T1 construct": "purchased Calbiochem 382180", "T1 sequence (Q9UBN7 1-1215)": "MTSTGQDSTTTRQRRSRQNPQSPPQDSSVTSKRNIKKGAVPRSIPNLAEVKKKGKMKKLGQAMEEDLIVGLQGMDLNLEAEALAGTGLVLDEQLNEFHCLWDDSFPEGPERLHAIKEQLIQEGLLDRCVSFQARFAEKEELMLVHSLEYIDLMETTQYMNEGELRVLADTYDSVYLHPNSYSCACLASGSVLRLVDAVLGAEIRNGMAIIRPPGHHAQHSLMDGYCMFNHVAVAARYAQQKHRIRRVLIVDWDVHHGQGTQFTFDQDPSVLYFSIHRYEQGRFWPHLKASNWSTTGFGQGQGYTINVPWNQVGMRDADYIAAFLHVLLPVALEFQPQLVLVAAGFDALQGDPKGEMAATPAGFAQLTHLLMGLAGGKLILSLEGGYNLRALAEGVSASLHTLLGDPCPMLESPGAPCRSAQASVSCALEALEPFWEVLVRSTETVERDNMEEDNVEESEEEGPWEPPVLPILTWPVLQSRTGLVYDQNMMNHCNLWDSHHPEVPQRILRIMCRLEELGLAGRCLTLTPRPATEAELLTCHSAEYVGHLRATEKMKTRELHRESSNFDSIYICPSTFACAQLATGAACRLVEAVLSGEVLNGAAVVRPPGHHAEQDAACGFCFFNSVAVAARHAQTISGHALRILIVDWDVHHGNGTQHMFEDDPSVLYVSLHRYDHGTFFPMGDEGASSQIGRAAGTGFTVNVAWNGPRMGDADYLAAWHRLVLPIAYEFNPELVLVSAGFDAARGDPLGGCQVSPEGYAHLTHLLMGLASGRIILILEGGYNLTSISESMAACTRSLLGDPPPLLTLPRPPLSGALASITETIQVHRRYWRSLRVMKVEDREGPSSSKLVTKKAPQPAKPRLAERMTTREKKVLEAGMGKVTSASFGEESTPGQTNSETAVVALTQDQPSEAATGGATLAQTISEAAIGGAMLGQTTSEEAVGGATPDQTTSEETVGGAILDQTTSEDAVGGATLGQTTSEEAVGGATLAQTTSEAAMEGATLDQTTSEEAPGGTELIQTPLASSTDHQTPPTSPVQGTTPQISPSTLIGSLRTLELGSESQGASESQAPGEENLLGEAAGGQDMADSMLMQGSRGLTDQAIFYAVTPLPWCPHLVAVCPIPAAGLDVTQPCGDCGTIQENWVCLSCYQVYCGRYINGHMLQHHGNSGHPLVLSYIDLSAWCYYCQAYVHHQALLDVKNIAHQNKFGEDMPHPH", "test": "HDAC enzyme activity inhibition (in vitro), HDAC6 assay", "type": "biochemical", "details": "samples at 0.1, 1, 10, 100 and 1000 nM; 37° C. 60 minutes; fluorescence Ex 390, Em 460; read-out: HDAC6 IC50", "method_in_brief": "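Fluorescence (Ex 390, Em 460) read after a 37° C, 60 min enzyme reaction and a further 30 min developer step at 37° C. Uses recombinant human HDAC6; HDAC1 arm dosed at 100, 1000, 10000 nM.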"}, "HDAC1": {"molecular_target": "T2, HDAC1 (Homo sapiens, UniProt Q13547)", "T2 construct": "purchased Enzolifesciences BML-AK511", "T2 sequence (Q13547 whole entry)": "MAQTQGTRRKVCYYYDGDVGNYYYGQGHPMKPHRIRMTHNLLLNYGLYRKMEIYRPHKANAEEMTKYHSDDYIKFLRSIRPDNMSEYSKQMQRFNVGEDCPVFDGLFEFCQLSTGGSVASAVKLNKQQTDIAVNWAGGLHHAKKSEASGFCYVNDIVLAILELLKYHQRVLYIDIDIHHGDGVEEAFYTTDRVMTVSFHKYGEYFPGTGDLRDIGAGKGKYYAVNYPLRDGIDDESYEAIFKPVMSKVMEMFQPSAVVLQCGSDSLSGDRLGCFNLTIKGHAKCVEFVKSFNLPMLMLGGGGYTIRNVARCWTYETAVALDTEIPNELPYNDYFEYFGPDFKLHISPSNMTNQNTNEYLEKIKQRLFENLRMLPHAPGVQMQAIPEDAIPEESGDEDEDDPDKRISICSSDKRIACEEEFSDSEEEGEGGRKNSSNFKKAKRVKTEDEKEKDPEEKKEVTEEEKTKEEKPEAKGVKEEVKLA", "test": "HDAC enzyme activity inhibition (in vitro), HDAC1 Fluorimetric Drug Discovery Assay Kit", "type": "biochemical", "details": "samples at 100, 1000 and 10000 nM; 37° C. 60 minutes; fluorescence Ex 390, Em 460; read-out: HDAC1 IC50", "method_in_brief": "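Fluorescence read-out (Ex 390/Em 460) after developer step, 30 min at 37° C, following a 60-min 37° C enzyme reaction. Test concentrations: HDAC1 kit, 100–10000 nM (three levels); recombinant human HDAC6, 0.1–1000 nM (five levels).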"}},
  "data": [
    {"smiles": "CN1CCC(n2cc(-c3cc4oc(=O)n(Cc5ccc(-c6nnc(C(F)F)o6)cn5)c4cc3F)cn2)CC1", "note": "[Compound 360, 3-((5-(5-(difluoromethyl)-1,3,4-oxadiazole-2-yl)pyridine-2-yl)methyl)-5-fluoro-6-(1-(1-methylpiperidine-4-yl)-1H-pyrazole-4-yl)benzo[d]oxazole-2(3H)-one]", "values": [
      {"measurement": "IC50", "setting": "HDAC6 human recombinant", "value": 27, "unit": "nM"},
      {"measurement": "IC50", "setting": "HDAC1", "value": "> 10000", "unit": "nM"}
    ]},
    {"smiles": "CC(C)N1CCC(n2cc(-c3cc4oc(=O)n(Cc5ccc(-c6nnc(C(F)F)o6)cn5)c4cc3F)cn2)CC1", "note": "[Compound 361, 3-((5-(5-(difluoromethyl)-1,3,4-oxadiazole-2-yl)pyridine-2-yl)methyl)-5-fluoro-6-(1-(1-isopropylpiperidine-4-yl)-1H-pyrazole-4-yl)benzo[d]oxazole-2(3H)-one]", "values": [
      {"measurement": "IC50", "setting": "HDAC6 human recombinant", "value": 23, "unit": "nM"},
      {"measurement": "IC50", "setting": "HDAC1", "value": "> 10000", "unit": "nM"}
    ]},
    {"smiles": "O=c1oc2cc(-c3cnn(C4CCN(C5COC5)CC4)c3)c(F)cc2n1Cc1ccc(-c2nnc(C(F)F)o2)cn1", "note": "[Compound 362, 3-((5-(5-(difluoromethyl)-1,3,4-oxadiazole-2-yl)pyridine-2-yl)methyl)-5-fluoro-6-(1-(1-(oxetan-3-yl)piperidine-4-yl)-1H-pyrazole-4-yl)benzo[d]oxazole-2(3H)-one]", "values": [
      {"measurement": "IC50", "setting": "HDAC6 human recombinant", "value": 31, "unit": "nM"},
      {"measurement": "IC50", "setting": "HDAC1", "value": "> 10000", "unit": "nM"}
    ]},
    {"smiles": "O=c1oc2cc(-c3cnn(C4CCN(CC(F)(F)F)CC4)c3)c(F)cc2n1Cc1ccc(-c2nnc(C(F)F)o2)cn1", "note": "[Compound 363, 3-((5-(5-(difluoromethyl)-1,3,4-oxadiazole-2-yl)pyridine-2-yl)methyl)-5-fluoro-6-(1-(1-(2,2,2-trifluoroethyl)piperidine-4-yl)-1H-pyrazole-4-yl)benzo[d]oxazole-2(3H)-one]", "values": [
      {"measurement": "IC50", "setting": "HDAC6 human recombinant", "value": 75, "unit": "nM"},
      {"measurement": "IC50", "setting": "HDAC1", "value": "> 10000", "unit": "nM"}
    ]},
    {"smiles": "CN1CCN(c2cc(-c3cc4oc(=O)n(Cc5ccc(-c6nnc(C(F)F)o6)cn5)c4cc3F)ccn2)CC1", "note": "[Compound 364, 3-((5-(5-(difluoromethyl)-1,3,4-oxadiazole-2-yl)pyridine-2-yl)methyl)-5-fluoro-6-(2-(4-methylpiperazine-1-yl)pyridine-4-yl)benzo[d]oxazole-2(3H)-one]", "values": [
      {"measurement": "IC50", "setting": "HDAC6 human recombinant", "value": 26, "unit": "nM"},
      {"measurement": "IC50", "setting": "HDAC1", "value": "> 10000", "unit": "nM"}
    ]},
    {"smiles": "CC(C)N1CCN(c2cc(-c3cc4oc(=O)n(Cc5ccc(-c6nnc(C(F)F)o6)cn5)c4cc3F)ccn2)CC1", "note": "[Compound 365, 3-((5-(5-(difluoromethyl)-1,3,4-oxadiazole-2-yl)pyridine-2-yl)methyl)-5-fluoro-6-(2-(4-isopropylpiperazine-1-yl)pyridine-4-yl)benzo[d]oxazole-2(3H)-one]", "values": [
      {"measurement": "IC50", "setting": "HDAC6 human recombinant", "value": 33, "unit": "nM"},
      {"measurement": "IC50", "setting": "HDAC1", "value": "> 10000", "unit": "nM"}
    ]},
    {"smiles": "O=c1oc2cc(-c3ccnc(N4CCN(C5COC5)CC4)c3)c(F)cc2n1Cc1ccc(-c2nnc(C(F)F)o2)cn1", "note": "[Compound 366, 3-((5-(5-(difluoromethyl)-1,3,4-oxadiazole-2-yl)pyridine-2-yl)methyl)-5-fluoro-6-(2-(4-(oxetan-3-yl)piperazine-1-yl)pyridine-4-yl)benzo[d]oxazole-2(3H)-one]", "values": [
      {"measurement": "IC50", "setting": "HDAC6 human recombinant", "value": 52, "unit": "nM"},
      {"measurement": "IC50", "setting": "HDAC1", "value": "> 10000", "unit": "nM"}
    ]},
    {"smiles": "O=c1oc2cc(-c3ccnc(N4CCN(C5CCC5)CC4)c3)c(F)cc2n1Cc1ccc(-c2nnc(C(F)F)o2)cn1", "note": "[Compound 367, 6-(2-(4-cyclobutylpiperazine-1-yl)pyridine-4-yl)-3-((5-(5-(difluoromethyl)-1,3,4-oxadiazole-2-yl)pyridine-2-yl)methyl)-5-fluorobenzo[d]oxazole-2(3H)-one]", "values": [
      {"measurement": "IC50", "setting": "HDAC6 human recombinant", "value": 312, "unit": "nM"},
      {"measurement": "IC50", "setting": "HDAC1", "value": "> 10000", "unit": "nM"}
    ]},
    {"smiles": "O=c1oc2cc(-c3ccnc(N4CCNCC4)c3)c(F)cc2n1Cc1ccc(-c2nnc(C(F)F)o2)cn1", "note": "[Compound 368, 3-((5-(5-(difluoromethyl)-1,3,4-oxadiazole-2-yl)pyridine-2-yl)methyl)-5-fluoro-6-(2-(piperazine-1-yl)pyridine-4-yl)benzo[d]oxazole-2(3H)-one]", "values": [
      {"measurement": "IC50", "setting": "HDAC6 human recombinant", "value": 18, "unit": "nM"},
      {"measurement": "IC50", "setting": "HDAC1", "value": "> 10000", "unit": "nM"}
    ]}
  ]
}
